The numbers were not newly measured in patent publication US10024846B2, “Methods for treating diet-induced obesity by decreasing or inhibiting P2Y2 purinergic receptor expression or activity” (The United States of America as represented by the …, priority 2012, dated 2018), which cites them from elsewhere.

For series [1], the target named is P2Y2 receptor. The settings on record: competitive P2Y2 receptor antagonists; values from cited literature.
Series [2] addresses rat P2Y4 receptor (Rattus norvegicus, UniProt O35811). The settings on record: Herold et al. 2004.
Series [3] deals with human P2Y4 receptor (Homo sapiens, UniProt P51582). The settings on record: Herold et al. 2004.
human P2Y4 receptor, sequence (P51582 whole entry): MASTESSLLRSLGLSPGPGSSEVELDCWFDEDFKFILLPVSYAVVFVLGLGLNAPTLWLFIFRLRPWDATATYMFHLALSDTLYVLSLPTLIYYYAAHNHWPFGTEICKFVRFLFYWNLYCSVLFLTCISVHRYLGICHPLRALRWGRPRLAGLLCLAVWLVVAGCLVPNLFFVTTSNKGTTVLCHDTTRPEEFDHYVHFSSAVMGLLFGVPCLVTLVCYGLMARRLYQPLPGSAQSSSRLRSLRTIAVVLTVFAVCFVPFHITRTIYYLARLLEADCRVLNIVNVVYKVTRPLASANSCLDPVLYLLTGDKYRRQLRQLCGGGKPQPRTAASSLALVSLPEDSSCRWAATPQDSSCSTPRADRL

rat P2Y4 receptor, sequence (O35811 whole entry): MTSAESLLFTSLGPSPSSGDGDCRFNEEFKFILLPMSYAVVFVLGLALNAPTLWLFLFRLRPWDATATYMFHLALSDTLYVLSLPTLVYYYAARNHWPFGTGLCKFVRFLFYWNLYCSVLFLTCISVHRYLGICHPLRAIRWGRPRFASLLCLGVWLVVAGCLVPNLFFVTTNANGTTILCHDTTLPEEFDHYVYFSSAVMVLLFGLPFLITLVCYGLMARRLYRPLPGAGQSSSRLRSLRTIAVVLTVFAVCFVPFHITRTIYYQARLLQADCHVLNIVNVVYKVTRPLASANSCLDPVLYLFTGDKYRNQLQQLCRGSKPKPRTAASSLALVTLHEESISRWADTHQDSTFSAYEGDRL

In the case of `Cn1cc(C2c3ccc(Cl)cc3C=Cc3scnc32)c(=S)[nH]c1=O` (stereo not shown) [AR-C126313], the IC50 in series [1] is around 6 µM.

On to `Nc1ncnc2c1ncn2[C@@H]1O[C@H](COP(=O)(O)OP(=O)(O)OP(=O)(O)O)[C@@H](O)[C@H]1O` [ATP], for which the “agonist versus antagonist action at the P2Y4 receptor” value is listed as “potent full agonist” in series [2] and “potent competitive antagonist” in series [3].

In the case of `Cc1ccc2c(c1)C=Cc1cc(C)ccc1C2c1cn(Cc2ccc(C(=O)Nc3nnn[nH]3)o2)c(=O)[nH]c1=S` [AR-C118925], the IC50 in series [1] is around 6 µM.

As usually defined, the IC50 is the concentration needed to halve the response being measured.
